Where two headings read alike, the source gives them in different places.
What was measured:
Type in all cases: cell-based
[1] = biological target: protein kinases (human kinome) (Homo sapiens, UniProt P41240); settings: experiment wp047
Description: (§1) Although development of targeted protein degraders requires a POI binder, among already-liganded proteins such as kinases, it was hypothesized that different targets would have a different propensity for current approaches to degrader-mediated destruction, which was termed ‘degradability’. […] It was rationalized that the probability of identifying the same kinase as a false positive in multiple treatments is low, therefore this analysis served to also assess the robustness of our data and subsequent interpretations. […] Overall, 62 protein kinases were degraded in more than 10 independent treatments, and remarkably, 9 of these (CDK4, AURKA, FER, WEE1, BLK. LIMK2, CDK6, GAK, LIMK1) were each degraded in at least 40 of the 154 independent treatments, emphasizing their predisposition to induced degradation (FIG. 1G; Appendix I).
(§2) Next, the frequency of degradation assessment was corrected for over-representation of molecules in the full dataset by omitting replicate profiling of compounds under different experimental conditions, to remove any bias. […] Unsurprisingly, the top degradable kinases mirror those from the previous analysis (CDK4, AURKA, FER, WEE1, BLK), confirming that in sufficiently large datasets, even with over-representation of certain molecules, frequency of degradation is a good measure of general tractability.

[2] = biological target: T1, protein kinases (human kinome) (Homo sapiens, UniProt P42680); settings: TEC (P42680), experiment wp047
T1 sequence (P42680 1-631): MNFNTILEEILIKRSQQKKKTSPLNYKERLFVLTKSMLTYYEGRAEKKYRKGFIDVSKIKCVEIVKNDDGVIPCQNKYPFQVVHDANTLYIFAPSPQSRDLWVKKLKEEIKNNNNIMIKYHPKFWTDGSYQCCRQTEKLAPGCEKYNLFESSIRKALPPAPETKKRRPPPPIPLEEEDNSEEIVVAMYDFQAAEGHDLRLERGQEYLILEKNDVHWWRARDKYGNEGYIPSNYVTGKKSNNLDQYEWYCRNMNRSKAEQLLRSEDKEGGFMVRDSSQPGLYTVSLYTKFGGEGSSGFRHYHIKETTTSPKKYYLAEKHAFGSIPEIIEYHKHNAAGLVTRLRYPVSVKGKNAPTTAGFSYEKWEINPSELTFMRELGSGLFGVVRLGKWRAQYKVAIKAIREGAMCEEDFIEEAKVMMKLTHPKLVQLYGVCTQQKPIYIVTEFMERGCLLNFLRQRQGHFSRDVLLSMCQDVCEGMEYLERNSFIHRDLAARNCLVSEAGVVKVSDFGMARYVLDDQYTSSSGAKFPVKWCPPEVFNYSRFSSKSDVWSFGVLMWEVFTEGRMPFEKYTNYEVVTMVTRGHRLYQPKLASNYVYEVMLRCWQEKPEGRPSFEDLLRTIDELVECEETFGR
Description: as §1, §2

[3] = biological target: protein kinases (human kinome) (Homo sapiens, UniProt P51451); settings: for logFC of BLK: BLK P51451; for logFC of BLK (P51451): down
Sequence of protein kinases (human kinome) (Homo sapiens, UniProt P51451) (P51451 whole entry): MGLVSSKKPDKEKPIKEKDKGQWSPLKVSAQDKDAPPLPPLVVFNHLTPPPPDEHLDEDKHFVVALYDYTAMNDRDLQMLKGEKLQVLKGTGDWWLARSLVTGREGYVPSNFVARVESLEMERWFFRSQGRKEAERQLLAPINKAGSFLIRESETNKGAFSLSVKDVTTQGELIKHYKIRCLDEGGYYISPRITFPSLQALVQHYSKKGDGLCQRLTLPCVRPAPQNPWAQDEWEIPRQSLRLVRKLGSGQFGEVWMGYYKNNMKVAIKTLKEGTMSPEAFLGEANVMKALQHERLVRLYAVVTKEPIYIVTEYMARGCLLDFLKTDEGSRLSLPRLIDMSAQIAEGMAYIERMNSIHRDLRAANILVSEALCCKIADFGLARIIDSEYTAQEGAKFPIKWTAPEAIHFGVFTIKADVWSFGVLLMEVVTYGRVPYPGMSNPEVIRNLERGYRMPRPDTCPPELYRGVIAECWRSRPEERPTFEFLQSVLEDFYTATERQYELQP
Description: as §1, §2

[4] = test system: protein kinases (human kinome); settings: for logFC LCK: accession P06239-3; for logFC LCK / logFC LCK (P06239-3): direction of change down; for logFC: degrader vs DMSO, down
Description: as §1, §2

[5] = biological target: T2, protein kinases (human kinome) (Homo sapiens, UniProt O14965); settings: experiment wp016
T2 sequence (O14965 1-403): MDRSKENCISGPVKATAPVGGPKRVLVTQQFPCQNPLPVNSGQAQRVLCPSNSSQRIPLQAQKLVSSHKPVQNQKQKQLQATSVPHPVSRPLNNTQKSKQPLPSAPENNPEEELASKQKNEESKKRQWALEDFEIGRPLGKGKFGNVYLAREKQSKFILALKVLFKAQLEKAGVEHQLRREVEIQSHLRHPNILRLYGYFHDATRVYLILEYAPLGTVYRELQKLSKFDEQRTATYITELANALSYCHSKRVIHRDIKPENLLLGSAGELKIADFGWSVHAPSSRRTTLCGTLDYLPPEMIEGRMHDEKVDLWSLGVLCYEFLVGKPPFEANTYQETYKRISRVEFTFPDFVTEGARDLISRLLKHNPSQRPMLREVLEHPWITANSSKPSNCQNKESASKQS
Description: as §1, §2

[6] = biological target: protein kinases (human kinome) (Homo sapiens, UniProt O94804); settings: STK10 (O94804), experiment wp016
Description: as §1, §2

[7] = biological target: protein kinases (human kinome) (Homo sapiens, UniProt P11802); settings: experiment wp016
Description: as §1, §2

[8] = biological target: protein kinases (human kinome) (Homo sapiens, UniProt P16591)
Description: as §1, §2

[9] = biological target: protein kinases (human kinome) (Homo sapiens, UniProt P24941); settings: experiment wp016
Description: as §1, §2

[10] = biological target: protein kinases (human kinome) (Homo sapiens, UniProt P30291); settings: experiment wp016
Description: as §1, §2

[11] = biological target: protein kinases (human kinome) (Homo sapiens, UniProt P50613)
Sequence of protein kinases (human kinome) (Homo sapiens, UniProt P50613) (P50613 whole entry): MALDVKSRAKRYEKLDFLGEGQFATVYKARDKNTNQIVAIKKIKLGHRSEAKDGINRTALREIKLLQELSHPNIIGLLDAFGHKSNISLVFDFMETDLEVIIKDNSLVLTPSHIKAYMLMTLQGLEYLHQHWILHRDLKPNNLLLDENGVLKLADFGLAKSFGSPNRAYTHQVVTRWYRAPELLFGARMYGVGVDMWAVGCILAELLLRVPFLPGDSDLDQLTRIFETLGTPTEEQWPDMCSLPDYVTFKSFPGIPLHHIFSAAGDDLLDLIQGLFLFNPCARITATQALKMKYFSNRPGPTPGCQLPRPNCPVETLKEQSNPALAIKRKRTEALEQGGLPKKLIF
Description: as §1, §2

[12] = biological target: protein kinases (human kinome) (Homo sapiens, UniProt P53671); settings: experiment wp016
Sequence of protein kinases (human kinome) (Homo sapiens, UniProt P53671) (P53671 whole entry): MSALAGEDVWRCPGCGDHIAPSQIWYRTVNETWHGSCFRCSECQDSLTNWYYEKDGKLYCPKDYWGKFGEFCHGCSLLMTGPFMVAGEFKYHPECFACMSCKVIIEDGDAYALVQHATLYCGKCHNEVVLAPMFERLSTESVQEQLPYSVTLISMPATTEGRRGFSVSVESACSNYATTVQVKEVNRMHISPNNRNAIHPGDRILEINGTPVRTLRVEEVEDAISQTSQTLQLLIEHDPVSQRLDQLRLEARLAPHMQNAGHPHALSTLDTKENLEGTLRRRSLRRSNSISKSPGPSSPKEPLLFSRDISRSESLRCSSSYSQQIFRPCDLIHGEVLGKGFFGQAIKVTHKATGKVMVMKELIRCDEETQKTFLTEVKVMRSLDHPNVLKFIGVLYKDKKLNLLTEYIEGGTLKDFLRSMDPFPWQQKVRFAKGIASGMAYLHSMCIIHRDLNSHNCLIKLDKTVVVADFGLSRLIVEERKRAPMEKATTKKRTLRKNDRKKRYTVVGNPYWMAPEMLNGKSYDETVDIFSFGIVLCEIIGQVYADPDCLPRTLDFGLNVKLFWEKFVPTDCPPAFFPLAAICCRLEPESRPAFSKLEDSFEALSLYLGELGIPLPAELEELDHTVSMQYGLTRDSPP
Description: as §1, §2

[13] = biological target: protein kinases (human kinome) (Homo sapiens, UniProt Q00534)
Sequence of protein kinases (human kinome) (Homo sapiens, UniProt Q00534) (Q00534 whole entry): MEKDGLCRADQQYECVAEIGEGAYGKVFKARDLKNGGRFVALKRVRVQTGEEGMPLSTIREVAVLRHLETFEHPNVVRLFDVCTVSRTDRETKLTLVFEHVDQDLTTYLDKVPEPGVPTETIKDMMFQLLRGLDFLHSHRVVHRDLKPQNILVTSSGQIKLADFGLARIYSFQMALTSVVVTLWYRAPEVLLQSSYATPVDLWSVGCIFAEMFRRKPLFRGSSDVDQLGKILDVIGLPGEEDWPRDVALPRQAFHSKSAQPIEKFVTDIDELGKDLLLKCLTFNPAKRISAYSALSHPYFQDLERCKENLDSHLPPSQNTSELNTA
Description: as §1, §2

[14] = biological target: protein kinases (human kinome) (Homo sapiens, UniProt Q00535); settings: experiment wp016
Description: as §1, §2

[15] = biological target: protein kinases (human kinome) (Homo sapiens, UniProt Q00537); settings: experiment wp016
Sequence of protein kinases (human kinome) (Homo sapiens, UniProt Q00537) (Q00537 whole entry): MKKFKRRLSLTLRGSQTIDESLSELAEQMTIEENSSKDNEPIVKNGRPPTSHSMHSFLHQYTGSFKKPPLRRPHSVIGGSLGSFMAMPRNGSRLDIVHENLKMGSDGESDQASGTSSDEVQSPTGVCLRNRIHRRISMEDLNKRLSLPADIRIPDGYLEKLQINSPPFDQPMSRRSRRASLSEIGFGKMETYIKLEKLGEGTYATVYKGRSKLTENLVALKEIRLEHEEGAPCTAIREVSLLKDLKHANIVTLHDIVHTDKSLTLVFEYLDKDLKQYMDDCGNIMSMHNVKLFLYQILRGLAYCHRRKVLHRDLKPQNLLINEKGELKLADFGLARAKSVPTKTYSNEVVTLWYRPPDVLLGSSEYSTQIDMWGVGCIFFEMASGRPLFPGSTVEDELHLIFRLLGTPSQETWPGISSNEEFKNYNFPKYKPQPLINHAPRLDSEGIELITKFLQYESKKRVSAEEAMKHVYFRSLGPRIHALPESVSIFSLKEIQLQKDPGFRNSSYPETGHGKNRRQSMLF
Description: as §1, §2

[16] = biological target: T3, protein kinases (human kinome) (Homo sapiens, UniProt Q08881); settings: experiment wp016
T3 sequence (Q08881 1-620): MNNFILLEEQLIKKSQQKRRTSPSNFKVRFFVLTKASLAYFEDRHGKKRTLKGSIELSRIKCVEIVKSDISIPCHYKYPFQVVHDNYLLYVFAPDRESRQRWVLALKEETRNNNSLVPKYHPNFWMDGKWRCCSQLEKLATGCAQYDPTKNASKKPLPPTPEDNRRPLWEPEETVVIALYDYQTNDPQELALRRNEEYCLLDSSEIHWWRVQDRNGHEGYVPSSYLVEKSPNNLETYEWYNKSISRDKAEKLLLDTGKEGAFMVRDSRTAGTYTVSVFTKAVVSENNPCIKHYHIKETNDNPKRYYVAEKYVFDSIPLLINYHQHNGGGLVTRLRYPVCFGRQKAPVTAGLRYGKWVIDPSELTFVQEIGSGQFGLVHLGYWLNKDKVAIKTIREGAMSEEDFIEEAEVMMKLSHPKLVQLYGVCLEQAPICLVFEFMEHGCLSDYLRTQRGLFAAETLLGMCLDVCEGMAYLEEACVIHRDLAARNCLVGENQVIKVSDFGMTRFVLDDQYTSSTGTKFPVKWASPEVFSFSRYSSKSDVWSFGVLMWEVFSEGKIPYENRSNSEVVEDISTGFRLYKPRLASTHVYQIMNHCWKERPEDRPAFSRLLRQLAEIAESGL
Description: as §1, §2

[17] = biological target: protein kinases (human kinome) (Homo sapiens, UniProt Q14289)
Sequence of protein kinases (human kinome) (Homo sapiens, UniProt Q14289) (Q14289 whole entry): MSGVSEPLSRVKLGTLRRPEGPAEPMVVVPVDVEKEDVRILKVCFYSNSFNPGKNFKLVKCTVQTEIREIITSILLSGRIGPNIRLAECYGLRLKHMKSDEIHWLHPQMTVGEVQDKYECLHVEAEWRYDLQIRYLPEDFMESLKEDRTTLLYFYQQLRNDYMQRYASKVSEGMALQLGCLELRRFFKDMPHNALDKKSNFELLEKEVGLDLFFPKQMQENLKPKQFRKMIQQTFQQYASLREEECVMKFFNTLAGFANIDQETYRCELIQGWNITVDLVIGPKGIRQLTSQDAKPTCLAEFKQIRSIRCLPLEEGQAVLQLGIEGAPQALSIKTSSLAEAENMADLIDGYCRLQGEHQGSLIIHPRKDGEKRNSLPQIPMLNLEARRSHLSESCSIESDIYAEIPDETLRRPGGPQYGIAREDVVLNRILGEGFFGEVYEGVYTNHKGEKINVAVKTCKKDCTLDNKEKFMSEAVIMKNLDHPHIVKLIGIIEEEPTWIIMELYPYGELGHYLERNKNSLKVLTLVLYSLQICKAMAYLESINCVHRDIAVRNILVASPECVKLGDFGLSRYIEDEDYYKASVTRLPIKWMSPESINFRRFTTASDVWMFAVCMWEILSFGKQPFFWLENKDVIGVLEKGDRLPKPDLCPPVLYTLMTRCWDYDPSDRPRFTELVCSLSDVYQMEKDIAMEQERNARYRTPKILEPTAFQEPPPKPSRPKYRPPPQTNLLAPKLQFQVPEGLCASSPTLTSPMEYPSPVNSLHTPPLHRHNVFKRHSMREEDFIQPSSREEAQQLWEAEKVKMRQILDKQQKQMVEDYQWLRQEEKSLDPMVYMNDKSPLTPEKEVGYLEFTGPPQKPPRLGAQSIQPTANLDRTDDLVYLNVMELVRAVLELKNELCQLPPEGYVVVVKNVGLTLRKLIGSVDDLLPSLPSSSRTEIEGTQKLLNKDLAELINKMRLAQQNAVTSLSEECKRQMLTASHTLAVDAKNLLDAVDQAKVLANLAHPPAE
Description: as §1, §2

[18] = biological target: protein kinases (human kinome) (Homo sapiens, UniProt Q2M2I8); settings: experiment wp016
Description: as §1, §2

[19] = biological target: protein kinases (human kinome) (Homo sapiens, UniProt Q9NYV4); settings: experiment wp016
Sequence of protein kinases (human kinome) (Homo sapiens, UniProt Q9NYV4) (Q9NYV4 whole entry): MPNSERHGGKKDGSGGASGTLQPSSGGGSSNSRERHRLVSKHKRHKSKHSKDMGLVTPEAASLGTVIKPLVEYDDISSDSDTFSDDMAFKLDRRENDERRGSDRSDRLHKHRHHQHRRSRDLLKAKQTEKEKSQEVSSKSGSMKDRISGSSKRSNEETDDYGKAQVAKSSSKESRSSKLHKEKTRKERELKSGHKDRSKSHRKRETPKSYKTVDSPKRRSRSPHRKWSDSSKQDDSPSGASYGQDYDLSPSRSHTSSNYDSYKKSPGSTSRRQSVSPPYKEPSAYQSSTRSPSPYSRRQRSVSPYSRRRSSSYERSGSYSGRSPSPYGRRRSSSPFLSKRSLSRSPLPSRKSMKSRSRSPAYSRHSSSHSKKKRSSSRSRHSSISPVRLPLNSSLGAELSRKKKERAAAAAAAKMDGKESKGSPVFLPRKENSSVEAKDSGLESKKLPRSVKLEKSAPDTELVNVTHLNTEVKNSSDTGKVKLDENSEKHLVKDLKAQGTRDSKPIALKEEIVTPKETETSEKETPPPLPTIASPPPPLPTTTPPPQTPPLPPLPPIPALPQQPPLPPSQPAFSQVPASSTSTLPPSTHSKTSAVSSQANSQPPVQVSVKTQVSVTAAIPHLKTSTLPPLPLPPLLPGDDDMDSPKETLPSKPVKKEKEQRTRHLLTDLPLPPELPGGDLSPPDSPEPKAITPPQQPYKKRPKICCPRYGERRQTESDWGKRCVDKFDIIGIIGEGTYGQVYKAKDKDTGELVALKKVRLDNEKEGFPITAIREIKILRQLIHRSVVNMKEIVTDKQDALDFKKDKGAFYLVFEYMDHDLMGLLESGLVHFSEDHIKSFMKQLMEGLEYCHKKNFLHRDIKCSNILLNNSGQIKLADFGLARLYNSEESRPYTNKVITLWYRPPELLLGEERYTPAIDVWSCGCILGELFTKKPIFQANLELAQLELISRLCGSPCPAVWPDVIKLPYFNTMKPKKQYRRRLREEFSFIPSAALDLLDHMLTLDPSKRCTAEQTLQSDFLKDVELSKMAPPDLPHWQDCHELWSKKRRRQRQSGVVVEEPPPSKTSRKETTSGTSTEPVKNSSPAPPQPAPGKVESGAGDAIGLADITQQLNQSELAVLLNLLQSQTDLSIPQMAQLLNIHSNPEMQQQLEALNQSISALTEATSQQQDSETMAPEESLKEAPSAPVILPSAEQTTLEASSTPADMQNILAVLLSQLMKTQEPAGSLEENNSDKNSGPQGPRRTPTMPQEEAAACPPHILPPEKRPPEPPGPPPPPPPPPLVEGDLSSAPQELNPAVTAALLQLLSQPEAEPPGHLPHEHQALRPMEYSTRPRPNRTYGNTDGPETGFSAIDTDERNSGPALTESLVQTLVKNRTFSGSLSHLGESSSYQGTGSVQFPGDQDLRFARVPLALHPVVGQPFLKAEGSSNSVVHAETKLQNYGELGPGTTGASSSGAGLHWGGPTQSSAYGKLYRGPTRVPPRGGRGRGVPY
Description: as §1, §2

## Nc1ncnc2c1c(-c1ccc(Oc3ccccc3)cc1)nn2[C@@H]1CCCN(C(=O)CCCN2CCN(CCNC(=O)CCOCCOCCNc3cccc4c3C(=O)N(C3CCC(=O)NC3=O)C4=O)CC2)C1 (some centres unmarked) [DD.03.119]
[1]; Accession P41240
  logFC of CSK: −1.786
[1]; CSK (P41240), down
  logFC CSK: −1.786
[2]
  logFC: −2.272
[2]; direction down
  logFC: −2.272
[3]; experiment wp047
  logFC of BLK: −1.859
[3]; Experiment wp047
  logFC of BLK (P51451): −1.859
[4]; Accession P06241-2, experiment wp047
  logFC FYN: −0.8669
[4]; Accession P12931-2, experiment wp047
  logFC of SRC: −0.6128
[4]; FYN P06241-2, experiment wp047
  logFC FYN: −0.8669
[4]; experiment wp047
  logFC LCK: −1.787
  logFC ABL2 (P42684-5): −1.047
  logFC of ABL2 (P42684-5): −1.047
  logFC LCK (P06239-3): −1.787
[4]; SRC (P12931-2) protein abundance
  logFC: −0.6128

## CC(C)S(=O)(=O)c1ccccc1Nc1nc(Nc2ccc(N3CCN(CCOCCOCCOCCNC(=O)CNc4ccc5c(c4)C(=O)N(C4CCC(=O)NC4=O)C5=O)CC3)cc2)ncc1Cl (centres unmarked) [SK.3.89]
[5]
  logFC AURKA (O14965): −1.672
[6]
  logFC: −0.3539
[6]; direction down
  logFC: −0.3539
[7]
  logFC CDK4 (P11802): −0.5177
[8]; Experiment wp016, down
  logFC of FER (P16591-1): −2.262
[8]; FER P16591-1, experiment wp016
  logFC of FER: −2.262
[9]
  logFC CDK2 (P24941-1): −0.5953
[9]; direction of change down
  logFC CDK2 (P24941-1): −0.5953
[10]
  logFC WEE1 (P30291-1): −1.017
[11]; CDK7 (P50613) protein abundance, degrader vs DMSO, down
  logFC: −0.7959
[11]; CDK7 P50613, experiment wp016
  logFC CDK7: −0.7959
[3]; experiment wp016
  logFC of BLK: −1.335
[3]; Experiment wp016
  logFC of BLK (P51451): −1.335
[12]; LIMK2 (P53671), down
  logFC LIMK2: −0.444
[12]; LIMK2 P53671
  logFC of LIMK2: −0.444
[13]; CDK6 (Q00534), direction down, experiment wp016
  logFC CDK6: −0.3396
[13]; Experiment wp016, down
  logFC of CDK6 (Q00534): −0.3396
[14]; Accession Q00535
  logFC of CDK5: −0.6254
[14]; direction of change down
  logFC CDK5 (Q00535): −0.6254
[15]; Accession Q00537
  logFC of CDK17: −0.6057
[15]; direction of change down
  logFC CDK17 (Q00537): −0.6057
[16]
  logFC ITK (Q08881): −2.044
[16]; direction of change down
  logFC ITK (Q08881): −2.044
[17]; PTK2B (Q14289-1) protein abundance, degrader vs DMSO, down
  logFC: −3.554
[17]; PTK2B, accession Q14289-1, experiment wp016, direction of change down
  logFC PTK2B: −3.554
[18]; AAK1 (Q2M218-1), down
  logFC AAK1: −1.219
[18]; AAK1, accession Q2M218-1, direction of change down
  logFC AAK1: −1.219
[19]; Accession Q9NYV4-1
  logFC CDK12: −0.5237
[19]; CDK12 (Q9NYV4-1)
  logFC CDK12: −0.5237
[4]; CDK9 (P50750-2) protein abundance
  logFC: −0.4777
[4]; experiment wp016
  logFC LCK: −0.449
  logFC CDK9 (P50750-2): −0.4777
  logFC LCK (P06239-3): −0.449

Source: US20240269139A1, “COMPOUNDS FOR TARGETED PROTEIN DEGRADATION OF KINASES” (DANA-FARBER CANCER INSTITUTE, INC., priority 2020, published 2024)
